Measured values published in patent US6346260B1, “Microbicidal active ingredients” (Ciba Specialty Chemicals Corporation, priority 1999, dated 2002).

Tests used:
Assay type in all cases: cell-based
[1] = test system: Pseudomonas aeruginosa CIP A-22; experiment: MIC in microtitre plates, Pseudomonas aeruginosa; conditions: Pseudomonas aeruginosa, CIPA22; Table 1; CIP A-22; 48 hours at 37° C.; ≦20% growth; read-out: MIC Pseudomonas aeruginosa
Description: (§1) Determination of Antimicrobial Activity in Accordance with the Microtitre Plate Method Determination of the Minimum Inhibitory Concentration (MIC value) in Microtitre Plates casein-soybean flour-peptone bouillon for the preparation of the precultures of the test bacteria and yeast. Pseudomonas aeruginosa CIP A-22 The test substances are predissolved in dimethyl sulfoxide (DMSO) and tested in a dilution series of 1:2. Bacteria and yeast are cultured overnight in CASO bouillon, the mould on mycological slant agar and rinsed off with 10 ml of 0.85% sodium chloride solution (+0.1% TritonX-100). All test organisms are adjusted to an organism count of 1-5*10^6 CFU/ml with 0.85% sodium chloride solution. The test substances are prepipetted into microtitre plates in an amount of 8 μl per well. Previously diluted test organism suspensions are diluted 1:100 in CASO bouillon (bacteria and yeast) and Sabouraud 2% glucose bouillon (mould) and added to the test substances in an amount of 192 μl per well. The test batches are incubated for 48 hours at 37° C. (bacteria and yeast) or for 5 days at 28° C. (mould). After incubation, the growth is determined by reference to the turbidity of the test batches (optical density) at 620 nm in a microplate reader. The minimum inhibitory concentration (MIC value) is the concentration of substance at which (compared with the growth of the control) an appreciable inhibition of the growth (≦20% growth) of the test organisms is ascertained. One microtitre plate is used for each test organism and substance concentration. All substances are tested in duplicate.

[2] = test system: Corynebacterium xerosis ATCC 373; experiment: MIC in microtitre plates, Corynebacterium xerosis; conditions: ATCC373, Table 1, 48 hours at 37° C., ≦20% growth
Description: as §1, with “Corynebacterium xerosis ATCC 373” for “Pseudomonas aeruginosa CIP A-22”, “The minimum inhibitory concentration (MIC value) is the concentration of substance at which (compared with the growth of the control) an appreciable inhibition of the growth (≦20% growth) of the test organisms is ascertained. One microtitre plate is used for each test organism and substance concentration. All substances are tested in duplicate.” left out

[3] = test system: Escherichia coli NCTC 8196; experiment: MIC in microtitre plates, Escherichia coli; conditions: Escherichia coli, NCTC8196; Table 1; NCTC 8196; 48 hours at 37° C.; ≦20% growth; read-out: MIC Escherichia coli
Description: as §1, with “Escherichia coli NCTC 8196” for “Pseudomonas aeruginosa CIP A-22”

[4] = test system: Aspergillus niger ATCC 6275; experiment: MIC in microtitre plates, Aspergillus niger; conditions: Aspergillus niger, ATCC6275, 120 h; Table 1; ATCC 6275; 5 days at 28° C.; ≦20% growth; read-out: MIC Aspergillus niger
Description: as §1, with “Mycological slant agar” for “casein-soybean flour-peptone bouillon”, “preculture” for “preparation”, “moulds. Aspergillus niger ATCC 6275” for “the precultures of the test bacteria and yeast. Pseudomonas aeruginosa CIP A-22”

MIC [1]: > 1000 µg/mL | MIC [2]: 50 µg/mL | MIC [3]: 50 µg/mL | MIC [4]: 100 µg/mL
SMILES: O=C(CC(=O)c1ccccc1O)c1ccco1 [Compound of formula (101)]
